Consider 16 compounds from PubChem BioAssay (NCI).

Values joined by “and” are separate entries in the source; they are usually repeats but may differ in a detail not shown here. Identical values can stand only once.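 Grown in 96-well plates, cells were treated for 48 hours with each compound at five concentrations. Insufficient inhibition: endpoint recorded as highest concentration tested. GI50 is the concentration that inhibits growth by half. TGI denotes the concentration required for complete inhibition of growth.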 A value given as a limit tells only on which side of the number the result lay.

The first assay concerns SK-MEL-28 melanoma. The assay is described as follows: NCI tumour cell line growth inhibition, 48 h.
As for `O=C(CCl)c1ccc([N+](=O)[O-])o1`, the GI50 was 1.61 µM and the TGI worked out at 3.14 µM.
`Nc1ncnc2c1ccn2C1OC2COP(=O)(O)OC2C1O` (stereo not given) displayed a TGI of 14.2 µM.
Take `Cc1cc(N2CCCCC2)nc(N(CCNc2ccnc3cc(Cl)ccc23)Cc2ccco2)n1`: the GI50 was 1.83 µM and the TGI came to 3.75 µM.
`O=C(O)[C@@H]1C2CC([C@@H]1C(=O)O)[C@H](N1C(=O)CCC1=O)[C@@H]2Br` (stereo not given in full) showed a TGI of more than 100 µM.
For the compound `COc1cc2cc(Oc3ccc(NC(=O)Nc4ccc(Cl)c(C(F)(F)F)c4)cc3)c(C)nc2cc1OCCN1CCCCC1`, the GI50 is 1.79 µM and the TGI is 3.23 µM.
Consider `CC[C@H](Nc1nc(N)nc(C)c1C#N)c1nc2cccc(CN(C)c3ncc(C(=O)NO)cn3)c2c(=O)n1-c1ccccc1`, for which the GI50 is 0.604 µM and the TGI stood at 3.16 µM.
The compound `CC1=CC(=O)c2c(O)cccc2C1=O` gave a TGI of 3.28 µM.
As to `CC12CCC(=O)C(O1)C1C(=O)c3cc4ccccc4cc3C(=O)C12` (stereo not given), the GI50 was 20.3 µM and the TGI stood at 74.4 µM.

The subject of the next assay is SN12C renal. The assay is described as follows: NCI tumour cell line growth inhibition, 48 h.
On to `O=c1cc(CNc2cc(F)cc(F)c2)c2ccc(I)cc2[nH]1`, for which the GI50 is 0.798 µM and the TGI was more than 100 µM.
As for `CCCN(Cc1ccc(F)cc1)c1ccc(CO)c(Cl)c1`, the GI50 is 9.42 µM and the TGI worked out at 23.1 µM.
Take `CC[C@](C)(O)C(=O)O[C@H]1C(=O)O[C@@H]2C[C@H]3C(C)=CC(=O)[C@@H](O)[C@]3(C)[C@H]3[C@@]4(O)OC[C@]32[C@@H]1[C@@H](C)[C@H]4O`: the GI50 was 0.317 µM; the TGI is 2.03 µM and 5.18 µM.
Turning to `CCN1C(=O)N(CC)C2C1NN=c1s/c(=C3\C(=O)N(C(C)C)c4ccccc43)c(=O)n12` (stereo not given), the GI50 is 0.616 µM and the TGI was more than 100 µM.
The corresponding values for `NC(=O)[C@H]1CCN(c2ncnc(N)c2F)C[C@@H]1N1CCC[C@@H](Nc2cc(Cl)cc(C(F)(F)F)c2)C1=O` are 10.9 µM and more than 100 µM.
Consider `CCN(CC)c1ccc(/C=C/c2cc(C)c3ccccc3n2)cc1`, for which the GI50 was 7.27 µM and the TGI was more than 100 µM.
In the same order, the values of `Cc1ccc2[nH]c(C(=O)NN3C(=O)CSC34CCCCC4C)c(-c3ccccc3)c2c1` (stereo not given) are 17.7 µM and 34.2 µM.
As to `CCN=C1C=CC(=C(c2ccc(N(C)C)cc2)c2ccc(N(C)C)cc2)c2ccccc21`, the GI50 was 0.035 µM and the TGI came out at 1.37 µM.
The corresponding values for `O=C(CCl)c1ccc([N+](=O)[O-])o1` are 2.38 µM and 7.27 µM.
Compound `Nc1ncnc2c1ccn2C1OC2COP(=O)(O)OC2C1O` (stereo not given) gave a TGI of 12.7 µM.
Turning to `Cc1cc(N2CCCCC2)nc(N(CCNc2ccnc3cc(Cl)ccc23)Cc2ccco2)n1`, the GI50 is 1.83 µM and the TGI amounted to 3.56 µM.
For `O=C(O)[C@@H]1C2CC([C@@H]1C(=O)O)[C@H](N1C(=O)CCC1=O)[C@@H]2Br` (stereo not given in full), the TGI is more than 100 µM.
For `COc1cc2cc(Oc3ccc(NC(=O)Nc4ccc(Cl)c(C(F)(F)F)c4)cc3)c(C)nc2cc1OCCN1CCCCC1`, the GI50 was 1.67 µM and the TGI is 3.26 µM.
As for `CC[C@H](Nc1nc(N)nc(C)c1C#N)c1nc2cccc(CN(C)c3ncc(C(=O)NO)cn3)c2c(=O)n1-c1ccccc1`, the GI50 is 1.11 µM and the TGI came out at 6.03 µM.
`CC1=CC(=O)c2c(O)cccc2C1=O` returned a TGI of 3.39 µM.
Consider `CC12CCC(=O)C(O1)C1C(=O)c3cc4ccccc4cc3C(=O)C12` (stereo not given), for which the GI50 was 16.5 µM and the TGI worked out at 36.4 µM.

For the next assay, the system named is SNB-19 CNS. The experiment in a line: NCI tumour cell line growth inhibition, 48 h.
Take `O=c1cc(CNc2cc(F)cc(F)c2)c2ccc(I)cc2[nH]1`: the GI50 is 0.637 µM and the TGI is more than 100 µM.
Take `CCCN(Cc1ccc(F)cc1)c1ccc(CO)c(Cl)c1`: the GI50 was 12.7 µM and the TGI was 26.8 µM.
On to `CC[C@](C)(O)C(=O)O[C@H]1C(=O)O[C@@H]2C[C@H]3C(C)=CC(=O)[C@@H](O)[C@]3(C)[C@H]3[C@@]4(O)OC[C@]32[C@@H]1[C@@H](C)[C@H]4O`, for which the TGI is 0.674 µM and 0.223 µM.
In the case of `CCN1C(=O)N(CC)C2C1NN=c1s/c(=C3\C(=O)N(C(C)C)c4ccccc43)c(=O)n12` (stereo not given), the GI50 was 0.44 µM and the TGI was more than 100 µM.
The corresponding values for `NC(=O)[C@H]1CCN(c2ncnc(N)c2F)C[C@@H]1N1CCC[C@@H](Nc2cc(Cl)cc(C(F)(F)F)c2)C1=O` are 25.8 µM and more than 100 µM.
The corresponding values for `CCN(CC)c1ccc(/C=C/c2cc(C)c3ccccc3n2)cc1` are 5.92 µM and more than 100 µM.
Regarding `Cc1ccc2[nH]c(C(=O)NN3C(=O)CSC34CCCCC4C)c(-c3ccccc3)c2c1` (stereo not given), the GI50 was 19.2 µM and the TGI came out at 42.6 µM.
The corresponding values for `CCN=C1C=CC(=C(c2ccc(N(C)C)cc2)c2ccc(N(C)C)cc2)c2ccccc21` are 0.217 µM and 4.21 µM.
The corresponding values for `O=C(CCl)c1ccc([N+](=O)[O-])o1` are 10.6 µM and 23.4 µM.
Compound `Nc1ncnc2c1ccn2C1OC2COP(=O)(O)OC2C1O` (stereo not given) showed a TGI of more than 75.9 µM.
Turning to `Cc1cc(N2CCCCC2)nc(N(CCNc2ccnc3cc(Cl)ccc23)Cc2ccco2)n1`, the GI50 was 3.26 µM and the TGI was 12 µM.
On to `O=C(O)[C@@H]1C2CC([C@@H]1C(=O)O)[C@H](N1C(=O)CCC1=O)[C@@H]2Br` (stereo not given in full), for which the TGI is more than 100 µM.
Consider `COc1cc2cc(Oc3ccc(NC(=O)Nc4ccc(Cl)c(C(F)(F)F)c4)cc3)c(C)nc2cc1OCCN1CCCCC1`, for which the GI50 was 1.68 µM and the TGI was 3.19 µM.
In the same order, the values of `CC[C@H](Nc1nc(N)nc(C)c1C#N)c1nc2cccc(CN(C)c3ncc(C(=O)NO)cn3)c2c(=O)n1-c1ccccc1` are 0.827 µM and 6.4 µM.
As for `CC1=CC(=O)c2c(O)cccc2C1=O`, the TGI was determined as 25 µM.
Turning to `CC12CCC(=O)C(O1)C1C(=O)c3cc4ccccc4cc3C(=O)C12` (stereo not given), the GI50 is 38.1 µM and the TGI is more than 100 µM.
